Test results from ChEMBL document CHEMBL3739354, “Nitrofuranyl Methyl Piperazines as New Anti-TB Agents: Identification, Validation, Medicinal Chemistry, and PK Studies” (ACS Med Chem Lett, 2015).
≈ marks a conversion by molar mass, not a printed value.

How the values were obtained:
[1] = test system: Mycobacterium tuberculosis; experiment: microbe, parasite or virus in culture; settings: 168 h
[2] = test system: Mycobacterium tuberculosis; experiment: microbe, parasite or virus in culture; settings: 168 h; remark: listed apart in the source

Row | Compound | MIC90 [1] [µM] | MIC90 [2] [µM]
1 | O=[N+]([O-])c1ccc(CN2CCN(c3ccc(F)cc3)CC2)o1 | 6.55 (≈ 2 µg/mL) | 
2 | O=[N+]([O-])c1ccc(CN2CCN(c3ccc(Cl)cc3)CC2)o1 | 0.072 (≈ 0.0232 µg/mL) | 0.029 (≈ 0.00933 µg/mL)
3 | Cc1cccc(N2CCN(Cc3ccc([N+](=O)[O-])o3)CC2)c1C | 25.3 (≈ 7.98 µg/mL) | 
4 | O=[N+]([O-])c1ccc(CN2CCN(c3ccccc3)CC2)o1 | 13.9 (≈ 4 µg/mL) | 
5 | O=[N+]([O-])c1ccc(CN2CCN(S(=O)(=O)c3ccccc3)CC2)o1 | 2.13 (≈ 0.748 µg/mL) | > 22.7
6 | COc1cccc(N2CCN(Cc3ccc([N+](=O)[O-])o3)CC2)c1 | 0.37 (≈ 0.117 µg/mL) | 0.09 (≈ 0.0286 µg/mL)
7 | O=[N+]([O-])c1ccc(CN2CCN(S(=O)(=O)c3ccc(F)cc3)CC2)o1 | 1.35 (≈ 0.499 µg/mL) | 1 (≈ 0.369 µg/mL)
8 | Cc1ccc(S(=O)(=O)N2CCN(Cc3ccc([N+](=O)[O-])o3)CC2)cc1 | 0.68 (≈ 0.248 µg/mL) | 14.6 (≈ 5.33 µg/mL)
9 | O=[N+]([O-])c1ccc(CN2CCN(c3cccc(Cl)c3)CC2)o1 | 0.37 (≈ 0.119 µg/mL) | 
10 | O=[N+]([O-])c1ccc(CN2CCN(c3ccc(N4CCOCC4)cc3)CC2)o1 | 0.08 (≈ 0.0298 µg/mL) | 0.08 (≈ 0.0298 µg/mL)
11 | CC(C)(C)c1ccc(N2CCN(Cc3ccc([N+](=O)[O-])o3)CC2)cc1 | 1.32 (≈ 0.453 µg/mL) | > 25.2
12 | O=[N+]([O-])c1ccc(CN2CCN(c3ccccc3F)CC2)o1 | 13.1 (≈ 4 µg/mL) | 
13 | O=[N+]([O-])c1ccc(CN2CCN(c3cccc(C(F)(F)F)c3)CC2)o1 | 5.63 (≈ 2 µg/mL) | 
14 | O=[N+]([O-])c1ccc(S(=O)(=O)N2CCN(Cc3ccc([N+](=O)[O-])o3)CC2)cc1 | 0.63 (≈ 0.25 µg/mL) | 4.19 (≈ 1.66 µg/mL)
15 | N#Cc1cccc(N2CCN(Cc3ccc([N+](=O)[O-])o3)CC2)c1 | 0.19 (≈ 0.0593 µg/mL) | 0.06 (≈ 0.0187 µg/mL)
16 | CC(C)(C)OC(=O)N1CCN(Cc2ccc([N+](=O)[O-])o2)CC1 | 0.32 (≈ 0.0996 µg/mL) | 0.12 (≈ 0.0374 µg/mL)
17 | COc1c(N2CCNC(C)C2)c(F)cc2c(=O)c(C(=O)O)cn(C3CC3)c12 (stereo not given) [GATIFLOXACIN] | 2.66 (≈ 0.999 µg/mL) | 1.33 (≈ 0.499 µg/mL)
18 | CO[C@H]1/C=C/O[C@@]2(C)Oc3c(C)c(O)c4c(O)c(c(/C=N/N5CCN(C)CC5)c(O)c4c3C2=O)NC(=O)/C(C)=C\C=C\[C@H](C)[C@H](O)[C@@H](C)[C@@H](O)[C@@H](C)[C@H](OC(C)=O)[C@@H]1C [RIFAMPIN] | 311 (≈ 256 µg/mL) | 156 (≈ 128 µg/mL)
